Drawing on PMC12430169, “Notoginsenoside R1, a Metabolite from Panax notoginseng, Prevents Paclitaxel-Induced Peripheral Neuropathic Pain in Mice” (Molecules, 2025), this text covers inhibition for one compound.

The experiment addresses T1, human recombinant monoacylglycerol lipase (MAGL) (Homo sapiens, UniProt Q99685).
T1 construct: gene MGLL
T1 sequence (Q99685 1-303): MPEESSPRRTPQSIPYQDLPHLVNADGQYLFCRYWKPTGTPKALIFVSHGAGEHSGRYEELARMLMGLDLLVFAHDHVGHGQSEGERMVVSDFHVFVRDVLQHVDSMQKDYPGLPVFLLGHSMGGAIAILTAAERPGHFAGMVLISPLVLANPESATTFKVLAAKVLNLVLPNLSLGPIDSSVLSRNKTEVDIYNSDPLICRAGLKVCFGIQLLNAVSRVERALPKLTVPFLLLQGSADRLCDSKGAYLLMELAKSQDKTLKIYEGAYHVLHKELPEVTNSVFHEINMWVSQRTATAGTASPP
In words: colorimetric MAGL inhibitor screening kit (Cayman), 4-nitrophenyl acetate hydrolysis at […] nm; […] inhibition at […] at […] min, […] at […] min; inhibition falls with concentration. It is filed as biochemical.

In the case of `CC(C)=CCC[C@](C)(O[C@@H]1O[C@H](CO)[C@@H](O)[C@H](O)[C@H]1O)[C@H]1CC[C@]2(C)[C@@H]1[C@H](O)C[C@@H]1[C@@]3(C)CC[C@H](O)C(C)(C)[C@@H]3[C@@H](O[C@@H]3O[C@H](CO)[C@@H](O)[C@H](O)[C@H]3O[C@@H]3OC[C@@H](O)[C@H](O)[C@H]3O)C[C@]12C` [NGR1, Notoginsenoside R1], the inhibition at 1 µM was found to be 41%.

A word on the inhibition: it is the relative decrease from the control value, in per cent.
